Laboratory results published in ChEMBL document CHEMBL4825702, “5-Aminonaphthalene derivatives as selective nonnucleoside nuclear receptor binding SET domain-protein 2 (NSD2) inhibitors for the treatment of multiple myeloma” (Eur J Med Chem, 2021).

Experiments:
[1] = target: T1, Histone-lysine N-methyltransferase NSD2 (Homo sapiens, UniProt O96028); assay: Inhibition of recombinant human N-terminal GST-tagged NSD2 CD (941 to 1240 residues) expressed in Escherichia coli using SAM as substrate in presence of nucleosomes by AlphaLISA method
T1 sequence (O96028 whole entry): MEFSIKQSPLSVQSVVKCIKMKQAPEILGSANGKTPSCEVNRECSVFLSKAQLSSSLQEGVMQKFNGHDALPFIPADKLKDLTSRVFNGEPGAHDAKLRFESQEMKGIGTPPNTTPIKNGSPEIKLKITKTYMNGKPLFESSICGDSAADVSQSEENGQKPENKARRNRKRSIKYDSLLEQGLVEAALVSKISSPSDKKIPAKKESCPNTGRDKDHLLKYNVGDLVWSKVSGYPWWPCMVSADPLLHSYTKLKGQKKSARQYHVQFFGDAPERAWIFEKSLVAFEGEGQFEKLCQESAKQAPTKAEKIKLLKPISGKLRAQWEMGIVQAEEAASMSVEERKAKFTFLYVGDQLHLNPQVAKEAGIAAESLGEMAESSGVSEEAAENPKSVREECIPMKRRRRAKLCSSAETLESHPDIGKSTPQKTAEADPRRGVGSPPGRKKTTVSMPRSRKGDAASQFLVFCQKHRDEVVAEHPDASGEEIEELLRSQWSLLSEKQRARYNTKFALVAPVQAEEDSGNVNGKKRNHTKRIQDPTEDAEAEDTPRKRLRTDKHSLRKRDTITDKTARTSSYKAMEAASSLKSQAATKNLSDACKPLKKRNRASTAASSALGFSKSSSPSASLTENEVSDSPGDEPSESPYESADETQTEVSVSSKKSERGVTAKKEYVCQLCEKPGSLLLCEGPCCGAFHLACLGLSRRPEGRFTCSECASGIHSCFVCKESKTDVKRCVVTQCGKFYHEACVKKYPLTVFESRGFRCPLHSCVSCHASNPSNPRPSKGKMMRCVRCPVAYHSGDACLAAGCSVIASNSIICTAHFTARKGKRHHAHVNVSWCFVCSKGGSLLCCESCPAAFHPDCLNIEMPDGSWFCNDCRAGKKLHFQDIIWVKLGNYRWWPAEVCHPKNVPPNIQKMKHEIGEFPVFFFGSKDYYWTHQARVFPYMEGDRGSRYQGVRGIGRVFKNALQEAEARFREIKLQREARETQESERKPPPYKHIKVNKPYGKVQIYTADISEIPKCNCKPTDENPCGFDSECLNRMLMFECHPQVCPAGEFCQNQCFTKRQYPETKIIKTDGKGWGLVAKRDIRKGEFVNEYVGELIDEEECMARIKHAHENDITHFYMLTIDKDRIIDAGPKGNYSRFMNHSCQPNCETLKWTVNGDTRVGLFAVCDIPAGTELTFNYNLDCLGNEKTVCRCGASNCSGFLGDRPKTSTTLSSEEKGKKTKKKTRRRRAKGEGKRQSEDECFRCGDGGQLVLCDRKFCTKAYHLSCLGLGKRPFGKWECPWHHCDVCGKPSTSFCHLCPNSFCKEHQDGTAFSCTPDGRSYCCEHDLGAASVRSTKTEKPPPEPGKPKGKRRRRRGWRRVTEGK

[2] = target: T1, Histone-lysine N-methyltransferase NSD2; assay: Inhibition of NSD2 (unknown origin)
[3] = target: T1, Histone-lysine N-methyltransferase NSD2; assay: Binding affinity to MMSET (973 to 1203 residues) (unknown origin) expressed in Escherichia coli BL21 DE3 by ITC analysis
[4] = target: T1, Histone-lysine N-methyltransferase NSD2; assay: Inhibition of NSD2 (953 to 1240 residues) (unknown origin) using SAM as substrate in presence of nucleosome by AlphaScreen assay
[5] = target: Histone-lysine N-methyltransferase, H3 lysine-36 specific (Homo sapiens, UniProt Q96L73); assay: Inhibition of human NSD1-SET using histone H3.1 as substrate incubated for 1 hr by Western blot analysis
Histone-lysine N-methyltransferase, H3 lysine-36 specific, sequence (Q96L73 whole entry): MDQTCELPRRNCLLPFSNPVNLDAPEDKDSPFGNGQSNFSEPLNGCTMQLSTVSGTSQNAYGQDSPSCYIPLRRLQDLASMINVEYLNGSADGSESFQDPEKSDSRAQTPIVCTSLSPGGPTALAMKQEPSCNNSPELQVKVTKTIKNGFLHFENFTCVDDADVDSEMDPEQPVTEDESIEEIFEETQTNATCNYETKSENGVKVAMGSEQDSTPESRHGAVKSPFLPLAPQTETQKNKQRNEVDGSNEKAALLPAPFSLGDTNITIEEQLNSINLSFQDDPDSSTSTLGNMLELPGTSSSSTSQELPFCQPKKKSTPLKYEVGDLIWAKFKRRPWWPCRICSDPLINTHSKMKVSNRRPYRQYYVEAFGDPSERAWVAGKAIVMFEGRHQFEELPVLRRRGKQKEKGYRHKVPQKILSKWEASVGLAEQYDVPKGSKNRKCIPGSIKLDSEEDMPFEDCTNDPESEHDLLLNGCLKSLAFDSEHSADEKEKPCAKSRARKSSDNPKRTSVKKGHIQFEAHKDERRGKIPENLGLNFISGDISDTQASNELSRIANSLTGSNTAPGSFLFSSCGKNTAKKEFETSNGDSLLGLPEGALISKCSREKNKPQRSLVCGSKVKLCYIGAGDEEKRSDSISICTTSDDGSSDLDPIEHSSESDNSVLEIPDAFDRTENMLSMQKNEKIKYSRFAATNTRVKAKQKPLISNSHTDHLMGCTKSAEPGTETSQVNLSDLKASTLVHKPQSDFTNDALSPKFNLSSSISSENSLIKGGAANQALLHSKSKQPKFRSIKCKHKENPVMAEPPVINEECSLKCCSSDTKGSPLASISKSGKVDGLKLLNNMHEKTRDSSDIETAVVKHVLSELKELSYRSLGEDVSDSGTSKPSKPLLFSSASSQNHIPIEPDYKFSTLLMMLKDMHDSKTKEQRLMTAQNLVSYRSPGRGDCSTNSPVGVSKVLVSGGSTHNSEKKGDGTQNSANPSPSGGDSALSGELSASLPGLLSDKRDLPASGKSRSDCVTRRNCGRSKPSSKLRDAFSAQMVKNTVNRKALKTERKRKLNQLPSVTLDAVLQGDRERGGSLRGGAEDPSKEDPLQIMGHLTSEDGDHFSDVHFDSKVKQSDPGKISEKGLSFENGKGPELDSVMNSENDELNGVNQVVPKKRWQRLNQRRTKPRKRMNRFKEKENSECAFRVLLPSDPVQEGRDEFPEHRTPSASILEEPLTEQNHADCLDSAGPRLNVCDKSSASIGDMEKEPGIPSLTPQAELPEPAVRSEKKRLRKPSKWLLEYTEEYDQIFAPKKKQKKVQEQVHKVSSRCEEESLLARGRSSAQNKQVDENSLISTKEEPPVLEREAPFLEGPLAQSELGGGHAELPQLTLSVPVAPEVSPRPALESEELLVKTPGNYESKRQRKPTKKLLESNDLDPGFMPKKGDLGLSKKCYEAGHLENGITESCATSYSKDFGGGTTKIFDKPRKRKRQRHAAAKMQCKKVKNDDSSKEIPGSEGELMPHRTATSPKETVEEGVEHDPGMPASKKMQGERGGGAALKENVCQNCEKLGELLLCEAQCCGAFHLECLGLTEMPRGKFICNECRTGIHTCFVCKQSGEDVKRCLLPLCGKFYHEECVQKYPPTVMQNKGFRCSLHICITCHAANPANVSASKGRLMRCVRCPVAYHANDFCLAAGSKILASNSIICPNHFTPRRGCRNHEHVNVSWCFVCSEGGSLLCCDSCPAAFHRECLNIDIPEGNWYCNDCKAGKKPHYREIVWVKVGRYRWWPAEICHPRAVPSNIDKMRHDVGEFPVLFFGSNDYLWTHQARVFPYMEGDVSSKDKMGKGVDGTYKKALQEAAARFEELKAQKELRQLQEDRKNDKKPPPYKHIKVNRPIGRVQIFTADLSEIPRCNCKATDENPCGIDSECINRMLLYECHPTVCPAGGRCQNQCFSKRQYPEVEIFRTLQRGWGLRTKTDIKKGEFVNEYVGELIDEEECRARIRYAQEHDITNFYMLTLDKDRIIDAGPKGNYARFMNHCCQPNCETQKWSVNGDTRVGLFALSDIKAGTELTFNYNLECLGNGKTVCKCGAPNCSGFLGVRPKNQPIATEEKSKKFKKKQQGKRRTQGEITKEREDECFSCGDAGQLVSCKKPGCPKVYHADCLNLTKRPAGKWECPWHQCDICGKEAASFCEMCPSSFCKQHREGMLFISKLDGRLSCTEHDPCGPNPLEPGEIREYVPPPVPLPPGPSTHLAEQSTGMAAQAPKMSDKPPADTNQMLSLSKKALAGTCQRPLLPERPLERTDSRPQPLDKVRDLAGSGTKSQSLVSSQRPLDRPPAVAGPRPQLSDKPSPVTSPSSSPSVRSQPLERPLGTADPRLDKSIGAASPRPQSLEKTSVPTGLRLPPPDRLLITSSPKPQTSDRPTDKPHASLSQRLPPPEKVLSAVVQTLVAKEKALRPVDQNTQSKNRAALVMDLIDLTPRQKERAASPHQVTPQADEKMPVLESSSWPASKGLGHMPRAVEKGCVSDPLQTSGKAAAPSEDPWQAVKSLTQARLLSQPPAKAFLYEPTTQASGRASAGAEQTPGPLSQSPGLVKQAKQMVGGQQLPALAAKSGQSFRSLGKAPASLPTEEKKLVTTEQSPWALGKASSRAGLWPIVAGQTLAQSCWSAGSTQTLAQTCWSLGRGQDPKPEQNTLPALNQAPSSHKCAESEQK

[6] = target: T1, Histone-lysine N-methyltransferase NSD2; assay: Inhibition of human NSD2-SET using histone H3.1 as substrate incubated for 1 hr by Western blot analysis
[7] = target: Histone-lysine N-methyltransferase NSD3 (Homo sapiens, UniProt Q9BZ95); assay: Inhibition of human NSD3-SET using histone H3.1 as substrate incubated for 1 hr by Western blot analysis
Histone-lysine N-methyltransferase NSD3, sequence (Q9BZ95 whole entry): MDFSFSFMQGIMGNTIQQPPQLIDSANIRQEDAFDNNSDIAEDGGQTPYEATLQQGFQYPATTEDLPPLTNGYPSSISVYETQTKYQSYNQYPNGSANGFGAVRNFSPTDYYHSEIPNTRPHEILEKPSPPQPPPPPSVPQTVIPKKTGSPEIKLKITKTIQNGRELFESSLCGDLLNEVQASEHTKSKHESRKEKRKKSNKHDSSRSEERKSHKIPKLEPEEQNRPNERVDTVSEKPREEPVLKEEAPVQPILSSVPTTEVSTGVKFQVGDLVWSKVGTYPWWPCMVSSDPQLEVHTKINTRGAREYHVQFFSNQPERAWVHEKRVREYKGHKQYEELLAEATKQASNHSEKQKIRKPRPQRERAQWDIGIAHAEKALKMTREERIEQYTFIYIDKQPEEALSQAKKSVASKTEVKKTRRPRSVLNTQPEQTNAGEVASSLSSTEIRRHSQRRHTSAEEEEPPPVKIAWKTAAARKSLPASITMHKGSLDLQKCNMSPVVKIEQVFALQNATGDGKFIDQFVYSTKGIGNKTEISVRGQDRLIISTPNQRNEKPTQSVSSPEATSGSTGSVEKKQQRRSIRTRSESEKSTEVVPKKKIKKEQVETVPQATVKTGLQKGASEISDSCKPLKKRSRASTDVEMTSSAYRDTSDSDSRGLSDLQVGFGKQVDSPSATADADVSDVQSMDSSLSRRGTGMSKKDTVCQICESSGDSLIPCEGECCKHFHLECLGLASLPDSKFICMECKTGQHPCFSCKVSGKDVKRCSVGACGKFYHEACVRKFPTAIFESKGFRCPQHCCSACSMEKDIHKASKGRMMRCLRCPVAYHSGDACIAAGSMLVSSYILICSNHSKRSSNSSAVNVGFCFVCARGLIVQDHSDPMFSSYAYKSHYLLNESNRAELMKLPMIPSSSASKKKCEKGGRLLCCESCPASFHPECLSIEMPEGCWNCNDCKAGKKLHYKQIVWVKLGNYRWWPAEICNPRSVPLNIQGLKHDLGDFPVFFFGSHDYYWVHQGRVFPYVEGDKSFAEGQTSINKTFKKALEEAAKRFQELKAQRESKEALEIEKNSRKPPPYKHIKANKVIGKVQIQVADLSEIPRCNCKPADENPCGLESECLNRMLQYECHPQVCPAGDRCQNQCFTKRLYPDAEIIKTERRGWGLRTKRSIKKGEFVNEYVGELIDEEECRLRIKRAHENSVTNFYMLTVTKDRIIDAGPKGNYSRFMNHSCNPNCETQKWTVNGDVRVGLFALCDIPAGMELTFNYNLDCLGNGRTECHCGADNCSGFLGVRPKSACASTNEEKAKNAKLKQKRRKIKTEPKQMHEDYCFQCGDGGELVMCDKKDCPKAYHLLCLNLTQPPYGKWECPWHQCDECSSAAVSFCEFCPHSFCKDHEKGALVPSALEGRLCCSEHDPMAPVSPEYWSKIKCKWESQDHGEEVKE

IC50 [1] [µM] | Structure (SMILES) | further results
10.2 | O=S(=O)(NCc1ccccc1)c1cccc2c(NC3CCNCC3)cccc12 | –
> 20 | Nc1cccc2cc(S(=O)(=O)NCc3ccccc3)ccc12 | –
> 20 | Nc1ccc2cc(S(=O)(=O)NCc3ccccc3)ccc2c1 | –
6 | CN1CCC(Nc2cccc3c(S(=O)(=O)NCc4ccccc4)cccc23)CC1 | –
26 | Nc1cccc2c(S(=O)(=O)NCc3ccncc3)cccc12 | –
22.7 | Nc1cccc2c(S(=O)(=O)NCc3cccs3)cccc12 | –
18.1 | N#Cc1ccc(CNS(=O)(=O)c2cccc3c(N)cccc23)cc1 | –
> 20 | CN(Cc1ccccc1)S(=O)(=O)c1cccc2c(N)cccc12 | –
18.4 | CC(C)(C)NS(=O)(=O)c1cccc2c(N)cccc12 | –
– | Nc1ncnc2c1ncn2[C@@H]1O[C@H](CC(N)CC[C@H](N)C(=O)O)[C@@H](O)[C@H]1O (some centres undefined) | IC50 [2]: 26 µM
> 20 | O=C(NCc1ccccc1)c1cccc2[nH]ccc12 | –
10.7 | O=S(=O)(NCc1ccccc1)c1cccc2c(NCC3CC3)cccc12 | –
19.6 | O=C(NCc1ccccc1)c1cccc2ncccc12 | –
> 20 | Nc1cccc2c(S(=O)(=O)NCc3ccc(C(=O)O)cc3)cccc12 | –
> 20 | Nc1ccc2c(S(=O)(=O)NCc3ccccc3)cccc2c1 | –
> 20 | CC(=O)Nc1cccc2c(S(=O)(=O)NCc3ccccc3)cccc12 | –
> 20 | O=S(=O)(NCc1ccccc1)c1cccc2ccccc12 | –
19.9 | Nc1cccc2c(S(=O)(=O)NC3CC3c3ccccc3)cccc12 (trans isomer) | –
> 20 | Nc1cccc2c(S(=O)(=O)NCC3CCCCC3)cccc12 | –
> 20 | Nc1cccc2c(S(=O)(=O)N3CCC(Cc4ccccc4)CC3)cccc12 | –
– | CCC(C)NC(CC[C@H](N)C(=O)O)C[C@H]1O[C@@H](n2cnc3c(N)ncnc32)[C@H](O)[C@@H]1O (some centres undefined) | Kd [3]: 1.6 µM; IC50 [4]: 3.3 µM

IC50 [1] [µM] | Structure (SMILES) | further results
> 20 | Nc1cccc2c(S(=O)(=O)Nc3ccccc3)cccc12 | –
12.6 | O=S(=O)(NCc1ccccc1)c1cccc2c(NC3CCCCC3)cccc12 | –
> 20 | Nc1ccc(S(=O)(=O)NCc2ccccc2)c2ccccc12 | –
> 20 | N#Cc1cccc(CNS(=O)(=O)c2cccc3c(N)cccc23)c1 | –
19.4 | Nc1cccc2c(C(=O)NCc3ccccc3)cccc12 | –
> 20 | Nc1cccc2c(S(=O)(=O)NCC3CCCNC3)cccc12 (centres undefined) | –
> 20 | O=C(OCc1ccccc1)N1CCC(Nc2cccc3c(S(=O)(=O)NCc4ccccc4)cccc23)CC1 | –
– | NNc1nc2ccccc2nc1S | IC50 [2]: 3 µM
18 | O=C(c1ccccc1)N1CCC(Nc2cccc3c(S(=O)(=O)NCc4ccccc4)cccc23)CC1 | –
3.4 | CN1CCC(CNS(=O)(=O)c2cccc3c(N)cccc23)CC1 | –
11.8 | CS(=O)(=O)N1CCC(Nc2cccc3c(S(=O)(=O)NCc4ccccc4)cccc23)CC1 | –
– | O=C1O[C@@H](C(=O)N2CCN(Cc3nc4sc5c(c4c(=O)[nH]3)CCCC5)CC2)Cc2ccccc21 | IC50 [2]: 11.2 µM
14.1 | Nc1cccc2c(S(=O)(=O)NCc3ccc(F)cc3)cccc12 | –
10.4 | Nc1cccc2c(S(=O)(=O)NCc3ccc(C(F)(F)F)cc3)cccc12 | –
7.5 | CC(=O)N1CCC(Nc2cccc3c(S(=O)(=O)NCc4ccccc4)cccc23)CC1 | –
15.4 | Nc1cccc2c(S(=O)(=O)NCCc3ccccc3)cccc12 | –
– | COc1cc2nc(N3CCN(C)CC3)nc(NC3CCN(Cc4ccccc4)CC3)c2cc1OC | IC50 [5]: 112 µM; IC50 [6]: 41 µM; IC50 [7]: 95 µM
> 20 | CN(C)c1cccc2c(S(=O)(=O)NCc3ccccc3)cccc12 | –
3.2 | CCN1CCC(Nc2cccc3c(S(=O)(=O)NCc4ccccc4)cccc23)CC1 | –
13.5 | COc1ccc(CNS(=O)(=O)c2cccc3c(N)cccc23)cc1 | –
